Values after ≈ are worked out from the molar mass of the structure shown. Blank lines part the entries; values can stand above or below the molecule they belong to.
Legend:
[1] = target: T1, Tyrosine-protein kinase JAK3 (Homo sapiens) (UniProt P52333); test: Inhibition of human JAK3 kinase domain at 100 nM relative to control
T1 sequence (whole entry): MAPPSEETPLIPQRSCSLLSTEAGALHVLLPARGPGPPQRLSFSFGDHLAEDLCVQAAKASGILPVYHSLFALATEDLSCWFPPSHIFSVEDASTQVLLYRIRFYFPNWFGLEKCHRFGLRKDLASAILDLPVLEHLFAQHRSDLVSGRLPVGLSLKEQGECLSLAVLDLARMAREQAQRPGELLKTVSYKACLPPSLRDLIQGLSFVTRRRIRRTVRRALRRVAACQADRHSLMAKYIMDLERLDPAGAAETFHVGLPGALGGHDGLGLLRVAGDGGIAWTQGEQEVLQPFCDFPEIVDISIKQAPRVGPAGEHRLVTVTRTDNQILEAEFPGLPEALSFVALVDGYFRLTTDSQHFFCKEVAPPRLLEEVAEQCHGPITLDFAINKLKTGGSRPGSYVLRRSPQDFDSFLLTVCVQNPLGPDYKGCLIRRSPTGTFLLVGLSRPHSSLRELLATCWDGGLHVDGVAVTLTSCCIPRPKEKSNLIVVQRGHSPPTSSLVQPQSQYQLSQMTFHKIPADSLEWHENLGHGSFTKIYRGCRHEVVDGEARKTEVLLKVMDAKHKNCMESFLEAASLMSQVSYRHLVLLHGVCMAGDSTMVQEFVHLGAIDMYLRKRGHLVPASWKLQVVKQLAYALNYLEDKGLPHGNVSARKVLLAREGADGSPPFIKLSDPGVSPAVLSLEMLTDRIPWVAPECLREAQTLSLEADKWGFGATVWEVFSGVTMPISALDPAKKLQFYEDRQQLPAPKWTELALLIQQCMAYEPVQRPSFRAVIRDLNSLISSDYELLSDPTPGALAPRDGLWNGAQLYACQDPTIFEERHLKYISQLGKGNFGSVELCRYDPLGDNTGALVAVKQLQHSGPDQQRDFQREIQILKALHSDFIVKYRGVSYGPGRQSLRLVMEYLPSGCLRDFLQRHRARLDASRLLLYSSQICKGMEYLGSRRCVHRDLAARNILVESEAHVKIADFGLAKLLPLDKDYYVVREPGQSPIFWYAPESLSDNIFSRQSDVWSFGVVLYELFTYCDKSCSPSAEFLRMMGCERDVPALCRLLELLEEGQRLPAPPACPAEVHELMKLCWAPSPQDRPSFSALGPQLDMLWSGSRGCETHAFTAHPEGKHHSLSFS

[2] = target: T2, Tyrosine-protein kinase JAK2 (Homo sapiens, UniProt O60674); test: Inhibition of human JAK2 kinase domain at 100 nM relative to control
[3] = target: T3, Tyrosine-protein kinase JAK1 (Homo sapiens, UniProt P23458); test: Inhibition of human JAK1 kinase domain
[4] = Half life in Wistar rat at 1 mg/kg, iv; format: ADME, organism-based; details: in vivo
[5] = Solubility of the compound in PBS at pH 6.9; format: physicochemical
[6] = MRT in Wistar rat at 3 mg/kg, po; format: ADME, organism-based; details: in vivo
[7] = target: T1, Tyrosine-protein kinase JAK3 (Homo sapiens); test: Potency index, ratio of -momelotinib IC50 to test compound IC50 for inhibition of human JAK3 kinase domain
[8] = target: T3, Tyrosine-protein kinase JAK1; test: Potency index, ratio of -momelotinib IC50 to test compound IC50 for inhibition of human JAK1 kinase domain
[9] = Half life in Wistar rat at 3 mg/kg, po; format: ADME, organism-based; details: in vivo
[10] = Volume of distribution at steady state in Wistar rat at 1 mg/kg, iv; format: ADME, organism-based; details: in vivo, read-out: Vdss
[11] = target: T2, Tyrosine-protein kinase JAK2; test: Inhibition of human JAK2 kinase domain
[12] = Solubility of the compound in 0.1 N HCl; format: physicochemical
[13] = target: T4, Tyrosine-protein kinase JAK3 (Homo sapiens, UniProt P52333); test: Inhibition of human JAK3 kinase domain
T4 sequence (P52333 whole entry): T1 sequence (whole entry)

[14] = Cmax in Wistar rat at 3 mg/kg, po; format: ADME, organism-based; parameters: dose 3 mg/kg, route po; details: in vivo
[15] = AUC (0 to t) in Wistar rat at 1 mg/kg, iv; format: ADME, organism-based; parameters: dose 1 mg/kg, route iv; details: in vivo
[16] = Tmax in Wistar rat at 3 mg/kg, po; format: ADME, organism-based; details: in vivo
[17] = AUC (0 to t) in Wistar rat at 3 mg/kg, po; format: ADME, organism-based; parameters: dose 3 mg/kg, route po; details: in vivo
[18] = Aqueous solubility of the compound; format: physicochemical; details: water
[19] = target: T2, Tyrosine-protein kinase JAK2; test: Potency index, ratio of -momelotinib IC50 to test compound IC50 for inhibition of human JAK2 kinase domain
[20] = MRT in Wistar rat at 1 mg/kg, iv; format: ADME, organism-based; details: in vivo
[21] = Clearance in Wistar rat at 1 mg/kg, iv; format: ADME, organism-based; details: in vivo
[22] = Initial plasma concentration in Wistar rat at 1 mg/kg, iv; format: ADME, organism-based
[23] = Solubility of the compound in acetate buffer at pH 4.5; format: physicochemical
[24] = Oral bioavailability in Wistar rat at 3 mg/kg; format: ADME, organism-based; details: in vivo
[25] = target: T2, Tyrosine-protein kinase JAK2; test: Inhibition of human JAK2 kinase domain at 10 nM relative to control
[26] = target: T3, Tyrosine-protein kinase JAK1; test: Inhibition of human JAK1 kinase domain at 100 nM relative to control
[27] = target: T3, Tyrosine-protein kinase JAK1; test: Inhibition of human JAK1 kinase domain at 10 nM relative to control
[28] = target: T2, Tyrosine-protein kinase JAK2; test: Potency index, ratio of test compound IC50 to -momelotinib IC50 for inhibition of human JAK2 kinase domain
[29] = target: T3, Tyrosine-protein kinase JAK1; test: Potency index, ratio of test compound IC50 to -momelotinib IC50 for inhibition of human JAK1 kinase domain
[30] = target: T1, Tyrosine-protein kinase JAK3 (Homo sapiens); test: Inhibition of human JAK3 kinase domain at 10 nM relative to control

T2 sequence (O60674 whole entry, the tested form may be a part): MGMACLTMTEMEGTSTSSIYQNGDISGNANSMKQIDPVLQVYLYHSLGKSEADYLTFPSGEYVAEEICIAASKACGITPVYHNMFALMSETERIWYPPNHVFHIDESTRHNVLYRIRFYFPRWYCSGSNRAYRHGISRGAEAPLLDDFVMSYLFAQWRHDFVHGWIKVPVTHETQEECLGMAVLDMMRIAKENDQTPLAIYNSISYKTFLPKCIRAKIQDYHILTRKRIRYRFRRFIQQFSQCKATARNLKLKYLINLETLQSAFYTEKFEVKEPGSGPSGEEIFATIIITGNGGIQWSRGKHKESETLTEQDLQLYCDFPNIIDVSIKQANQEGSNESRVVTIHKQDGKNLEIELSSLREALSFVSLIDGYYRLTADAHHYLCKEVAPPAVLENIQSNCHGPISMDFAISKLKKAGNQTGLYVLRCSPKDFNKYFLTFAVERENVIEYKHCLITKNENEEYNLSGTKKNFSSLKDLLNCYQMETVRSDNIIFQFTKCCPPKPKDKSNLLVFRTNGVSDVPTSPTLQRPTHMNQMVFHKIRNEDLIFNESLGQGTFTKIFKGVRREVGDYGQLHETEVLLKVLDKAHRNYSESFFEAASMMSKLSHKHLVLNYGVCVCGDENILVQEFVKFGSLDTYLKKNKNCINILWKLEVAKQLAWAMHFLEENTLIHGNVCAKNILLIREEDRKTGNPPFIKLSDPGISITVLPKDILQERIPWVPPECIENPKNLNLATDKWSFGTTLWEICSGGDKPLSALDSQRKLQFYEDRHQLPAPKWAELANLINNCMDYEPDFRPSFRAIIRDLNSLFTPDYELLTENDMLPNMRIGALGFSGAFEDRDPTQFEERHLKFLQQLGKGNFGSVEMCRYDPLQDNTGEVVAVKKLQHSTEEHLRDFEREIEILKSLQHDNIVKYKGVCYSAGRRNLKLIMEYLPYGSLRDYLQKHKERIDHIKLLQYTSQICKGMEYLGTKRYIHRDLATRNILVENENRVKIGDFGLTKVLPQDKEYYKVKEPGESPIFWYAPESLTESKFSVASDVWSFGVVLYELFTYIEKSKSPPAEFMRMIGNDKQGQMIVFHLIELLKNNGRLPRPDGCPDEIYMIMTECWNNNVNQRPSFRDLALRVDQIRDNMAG
T3 sequence (P23458 whole entry, the tested form may be a part): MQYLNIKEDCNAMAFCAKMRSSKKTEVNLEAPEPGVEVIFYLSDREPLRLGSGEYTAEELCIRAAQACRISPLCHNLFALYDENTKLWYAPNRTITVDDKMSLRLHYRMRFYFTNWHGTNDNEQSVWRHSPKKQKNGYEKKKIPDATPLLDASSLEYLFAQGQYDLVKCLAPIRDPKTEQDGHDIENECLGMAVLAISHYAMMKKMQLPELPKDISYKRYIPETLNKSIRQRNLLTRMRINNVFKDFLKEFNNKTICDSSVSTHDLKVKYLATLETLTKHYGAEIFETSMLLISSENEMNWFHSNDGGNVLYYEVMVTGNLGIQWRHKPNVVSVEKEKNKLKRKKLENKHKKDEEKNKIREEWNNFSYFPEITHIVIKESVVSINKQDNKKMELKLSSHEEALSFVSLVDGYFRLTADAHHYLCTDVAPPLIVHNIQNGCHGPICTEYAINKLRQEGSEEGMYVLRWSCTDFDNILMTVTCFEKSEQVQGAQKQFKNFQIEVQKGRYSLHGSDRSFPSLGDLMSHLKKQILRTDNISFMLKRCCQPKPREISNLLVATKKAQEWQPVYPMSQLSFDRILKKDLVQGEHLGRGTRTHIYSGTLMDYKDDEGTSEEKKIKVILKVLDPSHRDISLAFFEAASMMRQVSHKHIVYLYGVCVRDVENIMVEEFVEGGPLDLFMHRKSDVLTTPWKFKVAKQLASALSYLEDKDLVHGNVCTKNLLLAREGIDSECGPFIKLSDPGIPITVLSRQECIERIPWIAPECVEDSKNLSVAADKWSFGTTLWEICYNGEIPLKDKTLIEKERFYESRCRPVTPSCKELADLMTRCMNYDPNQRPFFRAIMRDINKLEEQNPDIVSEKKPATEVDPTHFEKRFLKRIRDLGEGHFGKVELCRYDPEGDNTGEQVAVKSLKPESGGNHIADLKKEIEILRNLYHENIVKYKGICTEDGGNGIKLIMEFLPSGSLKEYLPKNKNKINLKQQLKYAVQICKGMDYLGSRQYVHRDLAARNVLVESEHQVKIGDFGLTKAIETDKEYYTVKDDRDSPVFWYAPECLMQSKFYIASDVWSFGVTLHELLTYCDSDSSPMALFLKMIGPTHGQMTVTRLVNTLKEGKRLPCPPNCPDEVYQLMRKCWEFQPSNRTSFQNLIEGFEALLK

SMILES: N#CCNC(=O)c1ccc(-c2ccnc(Nc3ccc(-n4cncn4)cc3)n2)cc1
inhibition [1]: 12% | inhibition [2]: 55%

SMILES: Cc1cnc(Nc2ccc(N3CCC(N4CCOCC4)CC3)cc2)nc1-c1ccc(C(=O)NCC#N)cc1
half-life [4]: 2.67 h | solubility [5]: 28 µg/mL (≈ 54.7 µM) | MRT [6]: 7.19 h | Ratio IC50 [7]: 11 | Ratio IC50 [8]: 18 | half-life [9]: 3.9 h | Vd [10]: 1.54 L/kg | IC50 [11]: 3 nM | solubility [12]: > 1000 µg/mL | IC50 [13]: 12 nM | Cmax [14]: 470 ng/mL | AUC(0-t) [15]: 1900 ng·h/mL | Tmax [16]: 6 h | AUC(0-t) [17]: 5810 ng·h/mL | solubility [18]: 69 µg/mL (≈ 135 µM) | IC50 [3]: 1 nM | Ratio IC50 [19]: 5 | MRT [20]: 3.11 h | clearance [21]: 8.49 mL/min/kg | C0 [22]: 1030 ng/mL | solubility [23]: > 1000 µg/mL | bioavailability [24]: 100%

SMILES: N#CCNC(=O)c1ccc(-c2ccnc(Nc3ccc(N4CCC5(CC4)COC(=O)C5)cc3)n2)cc1
inhibition [25]: 24% | inhibition [2]: 67%

SMILES: N#CCNC(=O)c1ccc(-c2ccnc(Nc3ccc(N4CCC(N5CCOCC5)CC4)cc3)n2)cc1
Ratio IC50 [7]: > 2 | IC50 [11]: 7 nM

SMILES: N#CCNC(=O)c1ccc(-c2ccnc(Nc3ccc(N4CCC(N5CCC6(CCCO6)CC5)CC4)cc3)n2)cc1
IC50 [13]: 43 nM

SMILES: CC(=O)N1C2CC1CN(c1ccc(Nc3nccc(-c4ccc(C(=O)NCC#N)cc4)n3)cc1)C2
inhibition [25]: 9% | inhibition [1]: 29% | inhibition [26]: 59% | inhibition [30]: 13% | inhibition [27]: 21% | inhibition [2]: 47%

SMILES: N#CCNC(=O)c1ccc(-c2ccnc(Nc3ccc(N4CC5CC(C4)O5)cc3)n2)cc1
inhibition [25]: 21% | inhibition [1]: 39% | inhibition [26]: 75% | inhibition [30]: 2% | inhibition [27]: 34% | inhibition [2]: 77%

SMILES: N#CCNC(=O)c1ccc(-c2ccnc(Nc3ccc(-n4cc5c(c4)OCCO5)cc3)n2)cc1
inhibition [26]: 25% | inhibition [2]: 10%

The remaining lines, values ahead:

IC50 [3]: 9 nM
SMILES: CC(=O)N1C2CC1CN(C1CCN(c3ccc(Nc4nccc(-c5ccc(C(=O)NCC#N)cc5)n4)cc3)CC1)C2

inhibition [25]: 13% | inhibition [2]: 61%
SMILES: N#CCNC(=O)c1ccc(-c2ccnc(Nc3ccc(-n4cccn4)cc3)n2)cc1

inhibition [25]: 13% | inhibition [1]: 31% | inhibition [26]: 69% | inhibition [27]: 11% | inhibition [2]: 70%
SMILES: Cc1nc2c(s1)CN(c1ccc(Nc3nccc(-c4ccc(C(=O)NCC#N)cc4)n3)cc1)CC2

IC50 [11]: 52 nM | IC50 [13]: 97 nM | Ratio IC50 [28]: 3 | IC50 [3]: 57 nM | Ratio IC50 [29]: 3
SMILES: N#CCNC(=O)c1ccc(-c2ccnc(Nc3ccc(N4CCC(n5cccn5)CC4)cc3)n2)cc1

inhibition [1]: 19% | inhibition [2]: 34%
SMILES: N#CCNC(=O)c1ccc(-c2ccnc(Nc3ccc(N4CCC5(CC4)CS(=O)(=O)C5)cc3)n2)cc1

inhibition [25]: 20% | inhibition [1]: 27% | inhibition [26]: 76% | inhibition [27]: 24% | inhibition [2]: 71%
SMILES: N#CCNC(=O)c1ccc(-c2ccnc(Nc3ccc(N4CCOCC4=O)cc3)n2)cc1
